In brackets after ≈: the same amount, converted by molar mass. Like-named read-outs stand apart in the source and are kept apart here.
What was measured:
M. tb H37Rv [1] = assay: microbe, parasite or virus in culture; type: cell-based, Mycobacterium tuberculosis; conditions: Mycobacterium tuberculosis, H37RV; for MIC: read-out: M. tb H37Rv: MIC-MABA
VERO cell cytotoxicity = type: cell-based; conditions: African green monkey, VERO cells
From the text: The procedures described in Falzari 2005 were used to generate the data shown in column 2 of Table 4.

M. tb H37Rv [2] = assay: microbe, parasite or virus in culture; type: cell-based; conditions: Mycobacterium tuberculosis; for MIC: read-out: M. tb H37Rv: MIC-LORA; for inhibition at 20 µg/mL: at 20 μg/mL, read-out: M. tb H37Rv: MIC-LORA: Comment (% inhibition)
Mycobacterium abscessus = assay: M. ab_ATCC MIC MHII; type: cell-based
From the text: The procedure described in Franz 2017 was used to generate the data shown in column 5 of Table 4.

[3] = Mycobacteroides abscessus; read-out: M. ab_ATCC: MIC MHII: MIC

Compound | MIC (M. tb H37Rv [1]) [µg/mL] | IC50 (VERO cell cytotoxicity) [µg/mL] | MIC (M. tb H37Rv [2]) [µg/mL] | MIC (Mycobacterium abscessus; [3]) [µg/mL] | inhibition at 20 µg/mL (M. tb H37Rv [2]) [%] | MIC (Mycobacterium abscessus; Mycobacteroides abscessus, read-out: M. ab_ATCC: MIC MHII: MIC) [µg/mL] | inhibition at 1 µg/mL (M. tb H37Rv [1]; at 1 ug/mL, read-out: M. tb H37Rv: MABA % inhibition) [%]
Cc1cc(C)c2cc(C(=O)NC3CC[Si](C)(C)C3)[nH]c2c1 (racemic) [MPL-296, N-(1,1-dimethylsilolan-3-yl)-4,6-dimethyl-1H-indole-2-carboxamide] | 0.0151 (≈ 0.0503 µM) | 13.8 (≈ 45.9 µM) | 2.3 (≈ 7.65 µM) | 0.062 (≈ 0.206 µM) |  |  | 
C[Si]1(C)CCC(NC(=O)c2cc3c(Cl)cc(Cl)cc3[nH]2)C1 (racemic) [MPL-399, 4,6-dichloro-N-(1,1-dimethylsilolan-3-yl)-1H-indole-2-carboxamide] | < 0.004 | > 20 | 7.81 (≈ 22.9 µM) | 0.062 (≈ 0.182 µM) |  |  | 
C[Si]1(C)CC[C@@H](NC(=O)c2cc3c(Cl)cc(Cl)cc3[nH]2)C1 (single isomer, unassigned) [MPL-399A] | 0.03 (≈ 0.0879 µM) | > 64 |  | 0.125 (≈ 0.366 µM) |  |  | 
C[Si]1(C)CC[C@H](NC(=O)c2cc3c(Cl)cc(Cl)cc3[nH]2)C1 (single isomer, unassigned) [MPL-399B] | 0.003 (≈ 0.00879 µM) | 52 (≈ 152 µM) |  | 0.125 (≈ 0.366 µM) |  |  | 
COc1cc(F)cc2[nH]c(C(=O)NC3CC[Si](C)(C)CC3)cc12 [MPL-196, N-(1,1-dimethylsilinan-4-yl)-6-fluoro-4-methoxy-1H-indole-2-carboxamide] | 0.0048 (≈ 0.0144 µM) | > 32 | > 32 | > 64 |  |  | 
O=C(NC1CC[Si]2(CCCC2)CC1)c1cc2c(F)cc(F)cc2[nH]1 [MPL-251, 4,6-difluoro-N-(5-silaspiro[4.5]decan-8-yl)-1H-indole-2-carboxamide] | 0.0043 (≈ 0.0123 µM) | > 20 | 7 (≈ 20.1 µM) | > 64 |  |  | 
O=C(NC1CC[Si]2(CCCC2)CC1)c1cc2c(Cl)cc(Cl)cc2[nH]1 [MPL-252, 4,6-dichloro-N-(5-silaspiro[4.5]decan-8-yl)-1H-indole-2-carboxamide] | 0.014 (≈ 0.0367 µM) | > 20 |  | 64 (≈ 168 µM) |  |  | 
O=C(NC1CC[Si]2(CCCCC2)CC1)c1cc2c(F)cc(F)cc2[nH]1 [MPL-256, 4,6-difluoro-N-(6-silaspiro[5.5]undecan-3-yl)-1H-indole-2-carboxamide] | 0.0041 (≈ 0.0113 µM) | > 20 | 3.4 (≈ 9.38 µM) | > 64 |  |  | 
O=C(NC1CC[Si]2(CCCCC2)CC1)c1cc2c(Cl)cc(Cl)cc2[nH]1 [MPL-257, 4,6-dichloro-N-(6-silaspiro[5.5]undecan-3-yl)-1H-indole-2-carboxamide] | 0.0045 (≈ 0.0114 µM) |  | > 20 | > 64 | 68 |  | 
Cc1cc(C)c2cc(C(=O)NC3CCC[Si](C)(C)CC3)[nH]c2c1 (stereo not shown) [MPL-262, N-(1,1-dimethylsilepan-4-yl)-4,6-dimethyl-1H-indole-2-carboxamide] | 0.009 (≈ 0.0274 µM) |  | 16 (≈ 48.7 µM) | 0.5 (≈ 1.52 µM) |  |  | 
Cc1cc(C)c2cc(C(=O)NC3CC[Si]4(CCCC4)CC3)[nH]c2c1 [MPL-264, 4,6-dimethyl-N-(5-silaspiro[4.5]decan-8-yl)-1H-indole-2-carboxamide] | 0.011 (≈ 0.0323 µM) | > 20 | > 20 | 64 (≈ 188 µM) | 85 |  | 
Cc1cc(C)c2cc(C(=O)NC3CC[Si]4(CCCCC4)CC3)[nH]c2c1 [MPL-265, 4,6-dimethyl-N-(6-silaspiro[5.5]undecan-3-yl)-1H-indole-2-carboxamide] | 0.014 (≈ 0.0395 µM) | > 20 | > 20 | > 64 | 84 |  | 
C[Si]1(C)CCCC(NC(=O)c2cc3c(F)cc(F)cc3[nH]2)CC1 (stereo not shown) [MPL-286, N-(1,1-dimethylsilepan-4-yl)-4,6-difluoro-1H-indole-2-carboxamide] | 0.0044 (≈ 0.0131 µM) | > 20 | 7.9 (≈ 23.5 µM) | > 64 |  |  | 
Cc1cc(C)c2cc(C(=O)NC3CCC[Si](C)(C)CCC3)[nH]c2c1 [MPL-303, N-(1,1-dimethylsilocan-5-yl)-4,6-dimethyl-1H-indole-2-carboxamide] | < 0.004 | > 20 | 4.23 (≈ 12.3 µM) | 4 (≈ 11.7 µM) |  |  | 
Cc1cc(C)c2cc(C(=O)NC3CC[Si](C)(C)CC3)[nH]c2c1 [MPL-317, N-(1,1-dimethylsilinan-4-yl)-4,6-dimethyl-1H-indole-2-carboxamide] | 0.031 (≈ 0.0986 µM) | > 20 | > 20 | 0.062 (≈ 0.197 µM) |  |  | 
C[Si]1(C)CCCC(NC(=O)c2cc3c(C(F)(F)F)cc(C(F)(F)F)cc3[nH]2)CC1 (stereo not shown) [MPL-324, N-(1,1-dimethylsilepan-4-yl)-4,6-bis(trifluoromethyl)-1H-indole-2-carboxamide] | 0.0154 (≈ 0.0353 µM) | > 20 | > 20 | > 64 |  |  | 
C[Si]1(C)CCCCC(NC(=O)c2cc3c(C(F)(F)F)cc(C(F)(F)F)cc3[nH]2)CC1 (stereo not shown) [MPL-325, N-(1,1-dimethylsilocan-4-yl)-4,6-bis(trifluoromethyl)-1H-indole-2-carboxamide] | 0.0305 (≈ 0.0677 µM) | 16.4 (≈ 36.4 µM) | > 20 | > 64 |  |  | 
C[Si]1(C)CCCC(NC(=O)c2cc3c(C(F)(F)F)cc(C(F)(F)F)cc3[nH]2)CCC1 [MPL-326, N-(1,1-dimethylsilocan-5-yl)-4,6-bis(trifluoromethyl)-1H-indole-2-carboxamide] | 0.0305 (≈ 0.0677 µM) | 15.4 (≈ 34.2 µM) | > 20 | > 64 |  |  | 
C[Si]1(C)CCC(NC(=O)c2cc3c(C(F)(F)F)cc(C(F)(F)F)cc3[nH]2)C1 (stereo not shown) [MPL-327, N-(1,1-dimethylsilolan-3-yl)-4,6-bis(trifluoromethyl)-1H-indole-2-carboxamide] | 0.00752 (≈ 0.0184 µM) | > 20 | > 20 | > 64 |  |  | 
Cc1c(C(=O)NC2CC[Si](C)(C)CC2)[nH]c2cc(Cl)cc(Cl)c12 [MPL-334, 4,6-dichloro-N-(1,1-dimethylsilinan-4-yl)-3-methyl-1H-indole-2-carboxamide] | < 0.004 | > 20 | > 20 | > 64 |  |  | 
Cc1c(C(=O)NC2CC[Si](C)(C)CC2)[nH]c2cc(F)cc(F)c12 [MPL-335, N-(1,1-dimethylsilinan-4-yl)-4,6-difluoro-3-methyl-1H-indole-2-carboxamide] | < 0.004 | > 20 | > 20 | > 64 |  |  | 
C[Si]1(C)CCC(NC(=O)c2cc3c(C(F)(F)F)cc(C(F)(F)F)cc3[nH]2)CC1 [MPL-336, N-(1,1-dimethylsilinan-4-yl)-4,6-bis(trifluoromethyl)-1H-indole-2-carboxamide] | 0.0306 (≈ 0.0724 µM) | > 20 | > 20 |  |  | > 64 | 
Cc1cc(Br)c2cc(C(=O)NC3CC[Si](C)(C)CC3)[nH]c2c1 [MPL-337, 4-bromo-N-(1,1-dimethylsilinan-4-yl)-6-methyl-1H-indole-2-carboxamide] | 0.007 (≈ 0.0185 µM) | > 20 | > 20 | > 64 |  |  | 
Cc1cc(Br)cc2[nH]c(C(=O)NC3CC[Si](C)(C)CC3)cc12 [MPL-338, 6-bromo-N-(1,1-dimethylsilinan-4-yl)-4-methyl-1H-indole-2-carboxamide] | < 0.004 | > 20 | > 20 | > 64 |  |  | 
CC(CC[Si](C)(C)C)NC(=O)c1cc2c(Cl)cc(Cl)cc2[nH]1 (stereo not shown) [MPL-360, 4,6-dichloro-N-(1-methyl-3-trimethylsilyl-propyl)-1H-indole-2-carboxamide] |  | 15.4 (≈ 43.1 µM) | > 20 |  |  |  | 87

Reference: US20230040909A1 (priority 2019, published 2023)
